Results as given in patent US20050148653A1, “Polymaleimide compounds and their medical use” (priority 2001, published 2005).

Assays:
Chlamydia trachomatis = assay: Chlamydia assay: transient treatment of Chlamydia with maleimides, infection of McCoy cells, iodine-stained inclusions counted; format: cell-based; conditions: for IODINE-STAINED INCLUSIONS/FIELD F1: field 1; for IODINE-STAINED INCLUSIONS/FIELD F2: field 2; for IODINE-STAINED INCLUSIONS/FIELD F3: field 3; for IODINE-STAINED INCLUSIONS/FIELD F4: field 4; for IODINE-STAINED INCLUSIONS/FIELD F5: field 5; for MEAN COUNT/FIELD (iodine-stained inclusions): mean of 5 fields; for COMMENTS: inclusions seen on entire coverslip: re-examined under low power; for TOTAL COUNT/FIELDS (iodine-stained inclusions): sum of 5 fields
Description: Purified Chlamydia trachomatis (250 μl) was added to 250 μl of each compound concentration and the mixtures incubated at room temperature for 5 minutes. The tubes were then centrifuged (15000 rpm, 15 minutes), the supernatant decanted and the pellet washed serum free MEM (with 0.5 mls). This step was repeated and the resultant pellet resuspended MEM (in 0.5 ml) and inoculated into a confluent shell vial (coverslip) cultures of McCoy cells. The cultures were centrifuged (3000 rpm, 1 hour at 37° C.) and incubated for a further 2 hours prior to being changed onto MEM with 10% foetal calf serum, I μg/rl cycloheximide, 0.5% added glucose, vancomycin, streptomycin and amphoteracin B (Fungizone). The cultures were incubated for 68 hours, fixed in methanol and stained with Lugol's iodine. 3 replicates of each positive control (with and without DMSO) were included, as well as 2 uninoculated cell controls. Each coverslip culture was examined using low power (10×) objective to ensure that inclusions were evenly distributed and 5 high power (×40) fields were selected at random from different areas of the coverslip. Iodine stained inclusions were counted. Where no inclusions were seen on high power, the culture was re-examined under low power. Table 1. Effect of Transient Treatment with maleimides on Chlamydia Infection of McCoy Cell In Vitro. Chlamydia was pre-treated with each of the indicated maleimides for 5 minutes and the compound removed by centrifugation. McCoy cells were then exposed to the compound pre-treated chlamydia for 68 hours and inclusions counted following staining of cells with Lugols iodine.

HIV (IHV-1RF) = assay: Anti-viral (virucidal) assay: plate-bound HIV treated 10 minutes, C8166 cells added, syncytium score and XTT; format: cell-based; conditions: for Syncytia score day 5 (quadruplicate wells) / Syncytia score day 6 (quadruplicate wells): C8166 cells; for Mean Optical Readings at 450 nm: XTT cell viability
Description: HIV was attached to the surface of 96-well cell culture plates using 100 μl of 50 μg/ml poly-L-lysine hydrobromide (PLL) of molecular weight >300 K for 1 h at RT. The outer wells were left uncoated and filled with 250 μl of PBS to counteract the effects of evaporation. The coated wells were washed twice with PBS and 25 μl of RPMI 1640 medium containing 5×10^3 TCID50 of IHV-1RF was added and incubated for 1 h at RT. The wells were then washed twice with PBS and 25 μl of varying concentrations of the test compounds made up with serum free medium (containing a constant 10% DMSO) were added to the wells in quadruplicate and the plates incubated at 37° C. for 10 minutes. The wells were again washed twice with PBS and 5×10^4 C8166 cells in a volume of 300 μl distributed to each well and the plates incubated for 5 and 6 days respectively. On days 5 and 6 the cells were assessed microscopically for the presence of cytopathic effect (syncytium formation) and recorded. In order to quantify the cytopathic effect, XIT which is metabolised by viable but not dead cells, was added and the absorbance read at 450 nm after […] incubation at 37° C.
An assessment of viral cytopathic effect was made microscopically on days 5 and 6, but the end point of the experiment was on day 6 when the level of virus infection (as determined by cell viability) was quantified by the use of XTT.

[1] = final conc 0.02 (M), working conc 0.04 (M)
[2] = final conc 0.4 (M), working conc 0.8 (M)
[3] = final conc 1 (M), working conc 2 (M)

O=C1C=CC(=O)N1CCN1C(=O)C=CC1=O [Compound 1, ethyl bis-maleimide]
IODINE-STAINED INCLUSIONS/FIELD F1 (Chlamydia trachomatis; [1]): 0 inclusions/field
IODINE-STAINED INCLUSIONS/FIELD F2 (Chlamydia trachomatis; [1]): 0 inclusions/field
IODINE-STAINED INCLUSIONS/FIELD F3 (Chlamydia trachomatis; [1]): 0 inclusions/field
IODINE-STAINED INCLUSIONS/FIELD F4 (Chlamydia trachomatis; [1]): 0 inclusions/field
IODINE-STAINED INCLUSIONS/FIELD F5 (Chlamydia trachomatis; [1]): 0 inclusions/field
MEAN COUNT/FIELD (iodine-stained inclusions) (Chlamydia trachomatis; [1]): 0 inclusions/field
COMMENTS: inclusions seen on entire coverslip (Chlamydia trachomatis; [1]): 6 inclusions
TOTAL COUNT/FIELDS (iodine-stained inclusions) (Chlamydia trachomatis; [1]): 0
IODINE-STAINED INCLUSIONS/FIELD F1 (Chlamydia trachomatis; [2]): 0 inclusions/field
IODINE-STAINED INCLUSIONS/FIELD F2 (Chlamydia trachomatis; [2]): 0 inclusions/field
IODINE-STAINED INCLUSIONS/FIELD F3 (Chlamydia trachomatis; [2]): 0 inclusions/field
IODINE-STAINED INCLUSIONS/FIELD F4 (Chlamydia trachomatis; [2]): 0 inclusions/field
IODINE-STAINED INCLUSIONS/FIELD F5 (Chlamydia trachomatis; [2]): 0 inclusions/field
MEAN COUNT/FIELD (iodine-stained inclusions) (Chlamydia trachomatis; [2]): 0 inclusions/field
COMMENTS: inclusions seen on entire coverslip (Chlamydia trachomatis; [2]): No
TOTAL COUNT/FIELDS (iodine-stained inclusions) (Chlamydia trachomatis; [2]): 0
IODINE-STAINED INCLUSIONS/FIELD F1 (Chlamydia trachomatis; final conc 1 (M), working conc 2 (M), 5 minutes pre-treatment, McCoy cells 68 hours): 0 inclusions/field
IODINE-STAINED INCLUSIONS/FIELD F2 (Chlamydia trachomatis; [3]): 0 inclusions/field
IODINE-STAINED INCLUSIONS/FIELD F3 (Chlamydia trachomatis; [3]): 0 inclusions/field
IODINE-STAINED INCLUSIONS/FIELD F4 (Chlamydia trachomatis; [3]): 0 inclusions/field
IODINE-STAINED INCLUSIONS/FIELD F5 (Chlamydia trachomatis; [3]): 0 inclusions/field
MEAN COUNT/FIELD (iodine-stained inclusions) (Chlamydia trachomatis; [3]): 0 inclusions/field
COMMENTS: inclusions seen on entire coverslip (Chlamydia trachomatis; [3]): No
TOTAL COUNT/FIELDS (iodine-stained inclusions) (Chlamydia trachomatis; [3]): 0
inhibition of the infection of McCoy cells with chlamydia (Chlamydia trachomatis; transient exposure of chlamydia to compound): dose-dependent inhibition
Syncytia score day 5 (quadruplicate wells) (HIV (IHV-1RF); Conc 0.003 mM): ++++ (50-100% syncytia)
Syncytia score day 6 (quadruplicate wells) (HIV (IHV-1RF); Conc 0.003 mM, day 6): ++++ (50-100% syncytia)
Mean Optical Readings at 450 nm (HIV (IHV-1RF); Conc 0.003 mM, day 6): 0.4875
Syncytia score day 5 (quadruplicate wells) (HIV (IHV-1RF); Conc 0.01 mM): ++++ (50-100% syncytia)
Syncytia score day 6 (quadruplicate wells) (HIV (IHV-1RF); Conc 0.01 mM, day 6): ++++ (50-100% syncytia)
Mean Optical Readings at 450 nm (HIV (IHV-1RF); Conc 0.01 mM, day 6): 0.5028
Syncytia score day 5 (quadruplicate wells) (HIV (IHV-1RF); Conc 0.03 mM): ++++ (50-100% syncytia)
Syncytia score day 6 (quadruplicate wells) (HIV (IHV-1RF); Conc 0.03 mM, day 6): ++++ (50-100% syncytia)
Mean Optical Readings at 450 nm (HIV (IHV-1RF); Conc 0.03 mM, day 6): 0.5142
Syncytia score day 5 (quadruplicate wells) (HIV (IHV-1RF); Conc 0.1 mM): ++++ (50-100% syncytia)
Syncytia score day 6 (quadruplicate wells) (HIV (IHV-1RF); Conc 0.1 mM, day 6): ++++ (50-100% syncytia)
Mean Optical Readings at 450 nm (HIV (IHV-1RF); Conc 0.1 mM, day 6): 0.5347
Syncytia score day 5 (quadruplicate wells) (HIV (IHV-1RF); Conc 0.3 mM): +++ (25-50% syncytia)
Syncytia score day 6 (quadruplicate wells) (HIV (IHV-1RF); Conc 0.3 mM, day 6): +++ (25-50% syncytia)
Mean Optical Readings at 450 nm (HIV (IHV-1RF); Conc 0.3 mM, day 6): 0.5853
Mean Optical Readings at 450 nm (HIV (IHV-1RF); Conc 1 mM, day 6): 1.181
IC50 (HIV (IHV-1RF); Human immunodeficiency virus 1, C8166, XTT, day 6, virus treated 10 minutes, read-out: IC50 (virucidal)): 1000 µM
